From patent US20260132123A1, “ABAD INHIBITOR COMPOUNDS” (UNIVERSITY COURT OF THE UNIVERSITY OF ST ANDREWS, priority 2021, published 2026)

Target: T1, 17β-HSD10 (Homo sapiens, UniProt Q99714)
T1 construct: Histev (histidine tag with TEV site) (N, cleaved yes); made in house; host or cells: E. coli BL21-CodonPlus
T1 sequence (Q99714 1-261): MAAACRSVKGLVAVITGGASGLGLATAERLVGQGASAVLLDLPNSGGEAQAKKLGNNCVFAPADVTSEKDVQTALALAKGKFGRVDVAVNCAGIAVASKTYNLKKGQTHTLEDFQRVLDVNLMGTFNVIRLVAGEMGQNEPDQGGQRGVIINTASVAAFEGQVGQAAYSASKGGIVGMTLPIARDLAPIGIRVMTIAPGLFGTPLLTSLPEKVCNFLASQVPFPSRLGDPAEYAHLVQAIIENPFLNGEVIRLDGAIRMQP
Experiment: 17β-HSD10 (ABAD) enzyme inhibition assay, NADH oxidation read at 340 nm (primary screen and dose response)
Assay type: biochemical
Details: for EC50 / Max. Effect (%) / Hill Slope / Max. Fit / Min. Fit: recombinant 17βHSD10 enzyme assay; for Hill Slope / Max. Fit / Min. Fit: curve fit
Method: Cell pellets of E. coli BL21-CodonPlus cells containing Histev-17β-HSD10 protein were re-suspended for 30 min, 4° C., in lysis buffer (20 mM NaH2PO4, 30 mM imidazole, 500 mM NaCl, 10% (v/v) glycerol, pH 7.5) with the addition of complete ethylenediaminetetraacetic acid (EDTA)-free protease inhibitor tablets (Roche), lysozyme (1 mg/mL), deoxyribonuclease (DNase) (20 μg/mL) and Triton X-100 (0.1% (v/v)). Cells were lysed by passage through a cell disruptor at 30 kPSI (Constant Systems Ltd) and the lysate was cleared by centrifugation (Sorvall Evolution RC, rotor S5-34 55-34 angle, 20500 rpm, 30 min, 4° C.). Cleared lysate was filtered (0.45 μm membrane; Whatman) then applied to a Ni-nitrilotriacetic acid (NTA) (GE Healthcare) column pre-washed with lysis buffer and protein eluted with 300 mM imidazole buffer (20 mM NaH2PO4, 300 mM imidazole, 500 mM NaCl, 10% (v/v) glycerol, pH 7.5). […] Protein digestion and dialysis was carried out at 4° C. for 16 h.
Complete digestion was firstly checked by sodium dodecyl sulfate-polyacrylamide gel electrophoresis (SDS-PAGE), then fully digested protein was passed over a second Ni-column and the flow-through, containing 17β-HSD10 protein, was concentrated using a Vivaspin column (10 kDa MWCO, GE Healthcare) to ˜7 mL before final purification using gel filtration to remove imidazole (Hi-Load 16/60 Superdex 75 prep grade column, GE Healthcare, flow rate 1.5 mL/min). Protein was eluted in gel filtration buffer (10 mM trisaminomethane (Tris-HCl), 150 mM NaCl, 10% glycerol, pH 7.5) and concentrated (Vivaspin column (10 kDa molecular weight cut off (MWCO), GE Healthcare)) to 10 mg/mL. Aliquots (10 μL) were taken and flash frozen in liquid nitrogen before final storage at −80° C.
The assay buffer used contains: 10 mM Tris. HCl (pH 7.4), 150 mM NaCl, 1 mM DTT, 0.005% Tween (polysorbate 20) and 0.01% bovine serum albumin (BSA). As indicated for some experiments the assay buffer was supplemented with 100 units/ml bovine liver catalase. All experiments were conducted in clear bottom 384-well or 1536-well low volume microplates (Corning) with a final assay volume of 20 μL and the reaction progress was monitored by oxidation of NADH as determined by reduction in absorbance at 340 nm read on the EnVision plate reader (PerkinElmer).
For primary screening an endpoint assay format was adopted in which an Echo acoustic liquid dispenser (Labcyte) was used to transfer 20 nL of either reference standard, dimethylsulfoxide (DMSO) control ([…] final assay concentration (FAC)) or test compounds (10 μM FAC) to the assay plate. 10 μL of 17β-HSD10 enzyme in assay buffer (2.5 nM, FAC) was then added to the plates using the Preddator liquid handling robot (Redd and Whyte) and plates were incubated at room temperature for 15 minutes. 10 μL of substrate mixture (100 μM acetoacetyl-CoA and 100 μM NADH, FAC) was added with the Preddator. To start the reaction and the plates were left to incubate for 35 minutes at room temperature before the absorbance at 340 nm was read on the EnVision plate reader (PerkinElmer). For kinetic assay format and dose response follow up experiments the same protocol was adopted but the absorbance at 340 nm was monitored constantly for 45 minutes from immediately after the reaction was started.

Compound	EC50 [µM]	Max. Effect (%)	Hill Slope	Max. Fit	Min. Fit	17β-HSD10 / ABAD activity in words (SAR discussion)	ABAD plC50 (primary screening, resynthesized HTS hit compounds)
COc1cccc(-c2ccccc2[C@H]2CCCN2C(=O)c2cccs2)c1 [ESC1002425]	0.479	96	1.1	95	−8	–	–
CC(C)CN(C(=O)c1ccccc1F)c1cccc(N(C)Cc2c[nH]c(C(C)C)n2)c1 [ESC1002633]	> 20	45	0.93	100	−3	further losses in potency	–
CC(C)CN(C(=O)c1ccccc1C(F)(F)F)c1cccc(N(C)Cc2c[nH]cn2)c1 [ESC1002493, N-[3-[1H-imidazol 4-ylmethyl(methyl)amino]phenyl]-N-isobutyl-2-(trifluoromethyl)benzamide]	0.977	94	0.75	104	−8	–	–
CC(C)CN(C(=O)c1ccccc1F)c1cccc(N(C)Cc2c[nH]nn2)c1 [ESC1002675]	4.47	75	1.2	87	−2	–	–
O=C(c1[nH]ncc1Cl)N1CCC[C@H]1c1ccccc1-c1cccc(O)c1 (single isomer, unassigned) [ESC1002798]	> 20	18	–	–	–	–	–
CCCCN(C(=O)c1ccccc1F)c1cccc(N(C)Cc2c[nH]cn2)c1 [ESC1002508, N-butyl-2-fluoro-N-[3-[1H-imidazol-4-ylmethyl(methyl)amino]phenyl]benzamide]	1.55	92	1.2	96	0	–	–
COc1cccc(-c2ccccc2[C@@H]2CCCN2C(=O)c2cn[nH]c2)c1 (racemic) [ESC1002601]	6.31	82	0.74	115	−7	–	–
CC(C)N(C(=O)c1ccccc1F)c1cccc(N(C)Cc2cnc[nH]2)c1 [ESC1002078, 2-fluoro-N-[3-[1H-imidazol-5-ylmethyl(methyl)amino]phenyl]-N-isopropyl-benzamide]	0.631	97	1	101	−1	–	–
COc1cccc(-c2ccccc2[C@H]2CCCN2C(=O)c2sc(C)nc2C)c1 [ESC1002427]	> 20	4	–	–	–	–	–
COc1cccc(-c2ccccc2[C@H]2CCCN2C(=O)c2snnc2C)c1 [ESC1002429]	> 20	6	–	–	–	significantly less active	–
COc1cccc(-c2ccccc2[C@H]2CCCN2C(=O)c2sccc2C)c1 (single isomer, unassigned) [ESC1002420]	> 20	28	–	–	–	–	–
CC(C)CN(C(=O)c1ccccc1F)c1cccc(N(C)Cc2c[nH]cn2)n1 [ESC1002795]	5.62	77	1.1	93	0	–	–
COc1cccc(-c2ccccc2[C@@H]2CCCN2C(=O)C(C)(C)C)c1 (racemic) [ESC1002604]	> 20	20	–	–	–	–	–
COc1ccccc1C(=O)N(CC(C)C)c1cccc(N(C)Cc2c[nH]cn2)c1 [ESC1002458]	0.55	96	1	97	−7	–	–
O=C(c1sccc1Cl)N1CCC[C@H]1c1ccccc1-c1ccc2[nH]ncc2c1 (racemic) [ESC1002701]	0.288	99	1.2	96	0	–	–
O=C(c1[nH]ncc1Cl)N1CCC[C@H]1c1ccccc1 [S1−T14, 4-chloro-5-{[(2S)-2-phenylpyrrolidin-1-yl]carbonyl}-1H-pyrazole]	> 20	20.8	–	–	–	–	–

Compound	EC50 [µM]	Max. Effect (%)	Hill Slope	Max. Fit	Min. Fit	17β-HSD10 / ABAD activity in words (SAR discussion)	ABAD plC50 (primary screening, resynthesized HTS hit compounds)
O=C(c1nc(Br)no1)N1CCC[C@H]1c1ccccc1 [S1−T6]	> 20	20.5	–	–	–	–	–
CC(C)CN(C(=O)c1ccccc1F)c1cccc(N(C)Cc2cc[nH]n2)n1 [ESC1002796]	> 20	47	1.2	100	−4	–	–
CN(Cc1cncn1C(=O)OC(C)(C)C)c1cccc(NC(=O)c2ccccc2F)c1 [ESC1002055]	> 20	1	–	–	–	–	–
O=C(c1ccncc1)N1CCC[C@H]1c1ccccc1 [S1−T13, 4-{[(2S)-2-phenylpyrrolidin-1-yl]carbonyl}pyridine]	> 20	22.3	–	–	–	–	–
COc1cccc(-c2ccccc2[C@@H]2CCCN2Cc2sccc2F)c1 (racemic) [ESC1002695]	> 20	1	–	–	–	lost all activity	–
O=C(c1cccnc1)N1CCC[C@H]1c1ccccc1 [S1−T12, 3-{[(2S)-2-phenylpyrrolidin-1-yl]carbonyl}pyridine]	> 20	9.1	–	–	–	–	–
COc1cccc(C(=O)N(CC(C)C)c2cccc(N(C)Cc3cnc[nH]3)c2)c1 [ESC1002038, N-[3-[1H-imidazol-5-ylmethyl(methyl)amino]phenyl]-N-isobutyl-3-methoxy-benzamide]	2	92	0.8	105	−2	–	5.7
CC(C)CN(C(=O)c1ccccc1F)c1cccc(NCc2c[nH]c(C(C)C)n2)c1 [ESC1002632]	> 20	18	–	–	–	–	–
CC(C)CN(C(=O)c1ccccc1F)c1cccc(N(C)Cc2nc[nH]n2)c1 [ESC1002770]	2.69	86	1.2	91	−4	–	–
O=C(c1sccc1Cl)N1CCC[C@H]1c1ccccc1-c1cncnc1 (racemic) [ESC1002698]	7.41	59	1.1	71	1	–	–
COc1cccc(-c2ccccc2[C@@H]2CCCN2C(=O)c2snc(Cl)c2Cl)c1 (racemic) [ESC1002627]	> 20	5	–	–	–	–	–
CC(C)CN(C(=O)c1ccncn1)c1cccc(N(C)Cc2c[nH]cn2)c1 [ESC1002703]	8.71	52	1.3	70	−5	–	–
CN(Cc1c[nH]cn1)c1cccc(N(CC(C)(C)C)C(=O)c2ccccc2F)c1 [ESC1002517, N-(2,2-dimethylpropyl)-2-fluoro-N-[3-[1H-imidazol-4-ylmethyl(methyl)amino]phenyl]benzamide]	2	92	0.87	106	−1	–	–
Cc1ccsc1C(=O)N1CCC[C@H]1c1ccccc1-c1cccc(C(F)(F)F)c1 (racemic) [ESC1002789]	–	11	–	–	–	–	–
COc1cc(-c2ccccc2[C@@H]2CCCN2C(=O)c2sccc2Cl)ccc1F (racemic) [ESC1002699]	0.263	97	1.2	96	5	–	–
CC(C)CN(C(=O)c1ccccc1F)c1cccc(NCc2nc[nH]n2)c1 [ESC1002763]	> 20	8	–	–	–	–	–
